Columns and labels:
[1] = test system: HCT-116; experiment: Cytotoxicity against human HCT116 cells assessed as viability; format: functional; conditions: read-out: TD50 (the source's name)
[2] = biological target: DNA (cytosine-5)-methyltransferase 1 (Homo sapiens) (UniProt P26358); experiment: Inhibition of DNMT1 in human HCT116 cells at 5 uM after 24 hrs by Western blot analysis relative to control; format: cell-based; conditions: HCT-116
Sequence of DNA (cytosine-5)-methyltransferase 1 (Homo sapiens) (P26358 whole entry): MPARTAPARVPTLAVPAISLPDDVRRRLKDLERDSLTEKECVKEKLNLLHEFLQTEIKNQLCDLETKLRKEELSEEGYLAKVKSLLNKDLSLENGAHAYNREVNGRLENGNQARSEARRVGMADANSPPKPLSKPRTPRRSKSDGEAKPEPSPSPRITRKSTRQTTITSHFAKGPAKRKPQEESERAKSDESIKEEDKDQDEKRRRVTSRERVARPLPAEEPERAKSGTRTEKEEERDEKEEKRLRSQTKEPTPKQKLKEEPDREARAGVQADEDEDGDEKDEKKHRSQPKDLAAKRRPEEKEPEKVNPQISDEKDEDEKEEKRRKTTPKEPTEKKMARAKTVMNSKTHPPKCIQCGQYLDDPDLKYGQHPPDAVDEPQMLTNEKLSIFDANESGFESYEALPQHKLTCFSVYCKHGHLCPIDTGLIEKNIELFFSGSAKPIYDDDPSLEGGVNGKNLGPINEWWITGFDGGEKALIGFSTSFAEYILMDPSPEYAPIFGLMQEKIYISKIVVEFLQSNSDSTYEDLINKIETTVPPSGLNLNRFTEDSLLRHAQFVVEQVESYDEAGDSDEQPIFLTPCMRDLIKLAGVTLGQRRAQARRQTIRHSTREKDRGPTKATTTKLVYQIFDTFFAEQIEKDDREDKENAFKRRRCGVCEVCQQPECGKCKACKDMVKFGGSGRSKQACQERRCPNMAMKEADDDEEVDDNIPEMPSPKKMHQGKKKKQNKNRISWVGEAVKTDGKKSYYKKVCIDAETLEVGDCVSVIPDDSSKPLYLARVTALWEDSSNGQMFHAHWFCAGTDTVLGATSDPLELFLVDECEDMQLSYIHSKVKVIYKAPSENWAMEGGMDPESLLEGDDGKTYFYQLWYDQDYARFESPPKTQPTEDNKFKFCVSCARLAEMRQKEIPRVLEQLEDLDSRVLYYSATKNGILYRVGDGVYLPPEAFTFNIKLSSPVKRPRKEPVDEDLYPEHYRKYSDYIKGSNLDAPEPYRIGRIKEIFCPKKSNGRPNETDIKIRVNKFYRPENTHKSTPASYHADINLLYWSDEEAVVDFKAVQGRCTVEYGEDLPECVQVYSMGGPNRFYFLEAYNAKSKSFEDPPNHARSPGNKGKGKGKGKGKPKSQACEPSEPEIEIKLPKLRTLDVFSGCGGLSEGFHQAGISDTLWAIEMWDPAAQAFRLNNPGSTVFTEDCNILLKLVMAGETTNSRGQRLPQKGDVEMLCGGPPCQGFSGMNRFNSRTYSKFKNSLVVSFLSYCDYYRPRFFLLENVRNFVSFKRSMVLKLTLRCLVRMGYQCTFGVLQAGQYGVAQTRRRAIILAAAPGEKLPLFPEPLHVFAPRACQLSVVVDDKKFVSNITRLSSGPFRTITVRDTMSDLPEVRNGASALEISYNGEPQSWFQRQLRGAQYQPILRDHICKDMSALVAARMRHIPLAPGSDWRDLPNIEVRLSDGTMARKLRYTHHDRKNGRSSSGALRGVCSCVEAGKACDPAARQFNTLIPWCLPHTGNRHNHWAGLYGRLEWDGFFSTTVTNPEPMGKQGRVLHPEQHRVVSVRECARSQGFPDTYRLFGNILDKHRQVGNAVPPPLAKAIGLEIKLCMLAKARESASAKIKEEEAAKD

**Q.** Which results are given for `C[n+]1ccc(Nc2cccc(C(=O)Nc3ccc(Nc4ccnc5ccc(N)cc45)cc3)c2)cc1`?
**A.** CC50 [1]: 25 µM; inhibition [2]: 80%

**Q.** What does the source list for `C[n+]1ccc(Nc2ccc(C(=O)Nc3ccc(Nc4ccnc5ccccc45)cc3)cc2)cc1`?
**A.** CC50 [1]: 12.5 µM; inhibition [2]: 0%

**Q.** With `C[n+]1ccc(Nc2ccc(C(=O)Nc3ccc(Nc4ccnc5ccc(N)cc45)cc3)cc2)cc1` as the molecule, how does the CC50 [1] read?
**A.** The CC50 was 50 µM.

**Q.** What about the inhibition [2] of the same molecule?
**A.** The inhibition was 0%.

**Q.** What does the source list for `CN(C)c1ccc2nccc(Nc3ccc(C(=O)Nc4cccc(Nc5cc[n+](C)cc5)c4)cc3)c2c1`?
**A.** CC50 [1]: 25 µM; inhibition [2]: 0%

**Q.** What does the source list for `C/C(=N\N=C(N)N)c1cccc(C(=O)Nc2ccc(Nc3ccnc4ccc(N(C)C)cc34)cc2)c1`?
**A.** CC50 [1]: 25 µM; inhibition [2]: 40%

**Q.** With `C/C(=N\N=C(N)N)c1ccc(NC(=O)c2ccc(Nc3ccnc4ccc(N(C)C)cc34)cc2)cc1` as the molecule, how does the CC50 [1] read?
**A.** Its CC50 is 25 µM.

**Q.** And the inhibition [2]?
**A.** The inhibition was 30%.

**Q.** Which CC50 [1] does the source give for `C[n+]1ccc(Nc2ccc(NC(=O)c3ccc(Nc4ccnc5ccccc45)cc3)cc2)cc1` here?
**A.** Its CC50 is 25 µM.

**Q.** What about the inhibition [2] of the same molecule?
**A.** Its inhibition is 0%.

**Q.** With `CN(C)c1ccc2nccc(Nc3ccc(C(=O)Nc4ccc(Nc5cc[n+](C)cc5)cc4)cc3)c2c1` as the molecule, how does the CC50 [1] read?
**A.** The CC50 was 50 µM.

**Q.** And the inhibition [2]?
**A.** The inhibition was 16%.

**Q.** Which results are given for `C/C(=N\N=C(N)N)c1ccc(C(=O)Nc2ccc(Nc3ccnc4ccc(N(C)C)cc34)cc2)cc1`?
**A.** CC50 [1]: 25 µM; inhibition [2]: 34%

**Q.** With `Cc1cc(Nc2ccc(NC(=O)c3ccc(Nc4ccnc5ccc(Cl)cc45)cc3)cc2)nc(N)n1` as the molecule, how does the CC50 [1] read?
**A.** The CC50 was 25 µM.

**Q.** What about the inhibition [2] of the same molecule?
**A.** The inhibition was 30%.

**Q.** How did the CC50 [1] turn out when `Cc1cc(Nc2ccc(NC(=O)c3ccc(Nc4ccnc5ccc(N(C)C)cc45)cc3)cc2)nc(N)n1` was run?
**A.** Its CC50 is 25 µM.

**Q.** What about the inhibition [2] of the same molecule?
**A.** The inhibition was 43%.

**Q.** Which CC50 [1] does the source give for `Cc1cc(Nc2ccc(NC(=O)c3ccc(Nc4ccnc5ccccc45)cc3)cc2)nc(N)n1` here?
**A.** The CC50 was 25 µM.

**Q.** And the inhibition [2]?
**A.** The inhibition was 97%.

**Q.** Which CC50 [1] does the source give for `C[n+]1ccc(Nc2cccc(C(=O)Nc3ccc(Nc4ccnc5ccccc45)cc3)c2)cc1` here?
**A.** The CC50 was 25 µM.

**Q.** What about the inhibition [2] of the same molecule?
**A.** Its inhibition is 80%.

**Q.** Which results are given for `C[n+]1ccc(Nc2cccc(NC(=O)c3ccc(Nc4ccnc5ccc(N)cc45)cc3)c2)cc1`?
**A.** CC50 [1]: 12.5 µM; inhibition [2]: 2%

**Q.** Which CC50 [1] does the source give for `C[n+]1ccc(Nc2ccc(NC(=O)c3ccc(Nc4ccnc5ccc(N)cc45)cc3)cc2)cc1` here?
**A.** Its CC50 is 50 µM.

**Q.** What about the inhibition [2] of the same molecule?
**A.** Its inhibition is 0%.

**Q.** With `CN(C)c1ccc2nccc(Nc3ccc(NC(=O)c4ccc(Nc5cc[n+](C)cc5)cc4)cc3)c2c1` as the molecule, how does the CC50 [1] read?
**A.** The CC50 was 50 µM.

**Q.** And the inhibition [2]?
**A.** The inhibition was 45%.

**Q.** For `C/C(=N\N=C(N)N)c1cccc(NC(=O)c2ccc(Nc3ccnc4ccc(N(C)C)cc34)cc2)c1`, which CC50 [1] is on record?
**A.** The CC50 was 25 µM.

**Q.** And the inhibition [2]?
**A.** The inhibition was 0%.

**Q.** What does the source list for `CN(C)c1ccc2nccc(Nc3ccc(NC(=O)c4cccc(Nc5cc[n+](C)cc5)c4)cc3)c2c1`?
**A.** CC50 [1]: 25 µM; inhibition [2]: 75%

**Q.** Which results are given for `Cc1cc(Nc2cccc(C(=O)Nc3ccc(Nc4ccnc5ccccc45)cc3)c2)nc(N)n1`?
**A.** CC50 [1]: 25 µM; inhibition [2]: 85%

**Q.** What does the source list for `Cc1cc(Nc2ccc(C(=O)Nc3ccc(Nc4ccnc5ccccc45)cc3)cc2)nc(N)n1`?
**A.** CC50 [1]: 25 µM; inhibition [2]: 75%

**Q.** With `Cc1cc(Nc2ccc(NC(=O)c3ccc(Nc4ccnc5c(F)c(F)c(F)cc45)cc3)cc2)nc(N)n1` as the molecule, how does the CC50 [1] read?
**A.** The CC50 was 25 µM.

**Q.** And the inhibition [2]?
**A.** The inhibition was 18%.

**Q.** How did the CC50 [1] turn out when `C[n+]1ccc(Nc2cccc(NC(=O)c3ccc(Nc4ccnc5ccccc45)cc3)c2)cc1` was run?
**A.** The CC50 was 12.5 µM.

**Q.** And the inhibition [2]?
**A.** The inhibition was 0%.
